# Measured values: publication PMC9045377, “CpxA Phosphatase Inhibitor Activates CpxRA and Is a Potential Treatment for Uropathogenic Escherichia coli in a Murine Model of Infection” (Microbiology Spectrum, 2022)
# “Also recorded” adds a separate entry of the source. Counter-ions that a name gives are not always drawn.
# Key:
# UPEC strain CFT073 [1] = assay type: in vivo, Escherichia coli (in female CBA/J mice); settings: compound 6 trial
# Method: Four groups of eight female CBA/J mice were transurethrally inoculated with a target dose of ∼10^8 CFU of either CFT073 or CFT073ΔcpxA::cat. One group was treated with ciprofloxacin (2.5 mg/kg/dose dissolved in sterile distilled water) s.c. 12, 24, 36, 48, and 60 h after inoculation with CFT073 as described ([31]). The untreated CFT073 and CFT073ΔcpxA::cat inoculated groups were given the vehicle control s.c. at 12, 24, 36, 48, and 60 h after inoculation. The compound 6 treated group were given the drug (100 mg/kg) s.c. at 12, 36, and 60 h after inoculation with CFT073 and received the vehicle control s.c. at 24 and 48 h. The animals were sacrificed 4 h after the last treatment (64 h postinoculation) and CFU per milliliter or CFU per gram of tissue was determined in the urine, bladder, and kidneys.
# Animal experiments were conducted according to the guidelines of the University of Michigan Institutional Animal Care and Use Committee. For the animal infection experiments, bacterial strains were cultured at 37°C in LB medium overnight with shaking ([30]). Female CBA/J mice (Jackson Laboratories, Bar Harbor, ME) were inoculated transurethrally with a target dose of ∼10^8 CFU of CFT073 or CFT073ΔcpxA::cat. Mice were subsequently treated 12 h later either with the vehicle, ciprofloxacin hydrochloride (PanReac AppliChem ITW Reagents; Jade Scientific), compound 1, compound 6, or compound 26 as described in Results and euthanized 4 h after the last treatment. Bacterial loads of each strain were calculated from the urine, bladder, and kidneys of mice as previously described; the limits of detection for these assays were 100 CFU/mL or 100 CFU/g of urine and tissue, respectively ([33]). Values of 50 CFU/mL or 50 CFU/g were assigned to specimens whose yields were below the limit of detection.
# Due to the extreme skewness of the data, natural log transformation was used before the data were analyzed statistically. Descriptive statistics were calculated for all of the log-transformed variables. Statistical comparisons were done using analysis of variance (ANOVA) with follow-up pairwise tests adjusted for multiple comparisons using the Tukey procedure.
# UPEC strain CFT073 [2] = assay type: in vivo, Escherichia coli (in female CBA/J mice)
# [3] = Toxicity / clinical signs in mice; assay type: in vivo, female CBA/J mice; settings: 100 mg/kg s.c. twice a day for 3 days
# Method: We tested our initial hit, compound 1 ([31]) (Fig. 1), for toxicity in a murine model using criteria described in Materials and Methods. […] To test compound 1 for efficacy, female CBA/J mice were transurethrally inoculated with ∼1 × 10^8 CFU of UPEC strain CFT073; 12 h later, mice were treated with 100 mg/kg compound 1 (n = 10) or the vehicle control (n = 5) s.c. twice a day for 3 days and then sacrificed 4 h after the last dose. No effect was seen on the recovery of E. coli CFT073 in the urine, bladder, or kidneys (see Fig. S1 in the supplemental material). As compound 1 lacked efficacy, we aimed to improve the scaffold to enhance potency and eliminate the nitro group liability ([32]).
# We developed a high-performance liquid chromatography-tandem mass spectrometry (HPLC-MS/MS) assay to measure compound 6 with a lower limit of quantification of 1 ng/mL. Single-dose PK parameters of compound 6 were determined in female CBA/J mice (n = 15) given 100 mg/kg s.c. dissolved in the vehicle. Blood was obtained from groups of 3 mice 1, 2, 4, 8, and 24 h postinjection.
# Animal experiments were conducted according to the guidelines of the Indiana University School of Medicine Institutional Animal Care and Use Committee by the IU Simon Comprehensive Cancer Center In Vivo Therapeutics Core, a component of the Indiana Clinical Translational Science Institute. For the pilot toxicity study with compound 1, 4- to 6-week-old CBA/J female mice were obtained from Jackson Laboratory (Bar Harbor, ME) and were treated with compound 1 or the vehicle control twice a day for 3 days as described in the results. […] Toxicity was determined by the following criteria: deteriorating health-hunched posture, lack of grooming, failure to thrive, failure to eat and drink for >48 h, rapid loss of 15 to 20% body weight, inactivity with hunched posture, loss of righting reflex and inability to maintain upright posture, loss of general body condition with spine becoming visible, and dehiscence of wounds and/or evidence of infection at injection sites not responsive to veterinary treatment.
# CpxRA = test system: CpxRA; design: method as in PMID 31104993; settings: β-galactosidase reporter assay in E. coli; read-out: mean 50% effective concentration (EC50), CpxRA activation; cited from earlier work
Compound,"CFU of CFT073 recovered in urine vs CFT073-inoculated vehicle control (UPEC strain CFT073 [1]; 8 mice/group, compound 6 100 mg/kg s.c. at 12, 36, 60 h, ciprofloxacin 2.5 mg/kg/dose s.c. at 12, 24, 36, 48, 60 h, sacrifice 64 h)",CFU of CFT073 recovered in kidneys vs CFT073-inoculated vehicle control (UPEC strain CFT073 [1]; same regimens),"recoverable CFU in urine vs CFT073-inoculated vehicle-treated controls (UPEC strain CFT073 [2]; compound 26 trial, 8 mice/group, compound 26 100 mg/kg s.c. at 12, 36, 60 h, ciprofloxacin 2.5 mg/kg/dose s.c. at 12, 24, 36, 48, 60 h, sacrifice 64 h)","recoverable CFU in kidneys vs CFT073-inoculated vehicle-treated controls (UPEC strain CFT073 [2]; compound 26 trial, same regimens)","recovery of E. coli CFT073 in the urine, bladder, or kidneys vs vehicle control (UPEC strain CFT073 [2]; 100 mg/kg s.c. twice a day for 3 days from 12 h after ~1 × 10^8 CFU transurethral, sacrificed 4 h after last dose)",duration of decreased activity after each dose [3] [min],"toxicity ([3]; n = 3, observed 14 days)",EC50 (CpxRA) [µM]
"O=C(O)c1cn(C2CC2)c2cc(N3CCNCC3)c(F)cc2c1=O [ciprofloxacin, ciprofloxacin hydrochloride, reference compound]",significantly reduced,significantly reduced,significantly lower,significantly lower,,,,
"NC1CCCc2c1[nH]c1ccc([N+](=O)[O-])cc21 (centres unmarked) [compound 1, 6-nitro-2,3,4,9-tetrahydro-1H-carbazol-1-amine]",,,,,no significant; also recorded: No effect,20,exhibited no toxicity,24.8
